Assay results published in article PMC3494675, “Structure-Function Analysis of the Glioma Targeting NFL-TBS.40-63 Peptide Corresponding to the Tubulin-Binding Site on the Light Neurofilament Subunit” (PLoS ONE, 2012).
Peptide text beside a SMILES is read from it. * marks the point of attachment. Biotin = O=C1N[C@H]2[C@H](CS[C@H]2CCCCC(=O)*)N1

Experiments:
[1] = tested on: T98G human glioblastoma cells; assay: Peptide incorporation into T98G cells (immunocytochemistry, cell counting); format: cell-based; settings: 6 hours; for Peptide incorporation (% of cells): T98G cells, 10 µM biotinylated peptide, Alexa-labeled avidin/streptavidin fluorescence microscopy, minimum 200 cells per experiment, mean ± S.E.M., triplicated; for Cell penetration / internalization in T98G cells (in words): 10 µM, immunocytochemistry, compared to original NFL-TBS.40-63
Protocol: (§1) Cells containing the biotinylated peptide were detected using Alexa-labeled avidin (green fluorescence) and those displaying a normal or a destroyed MT network were detected with an anti-tubulin antibody (red fluorescence) ( Figure 1A-B ). Then, we counted a minimum of 200 cells per slide containing or not the peptide, and with a normal or destroyed microtubule network ( Figure 1C ). As illustrated on Figure 1A glioblastoma cells contain a rich MT network. […] Cells were plated on cover slips and cultured in media containing biotinylated peptides (10 μM) for 6 hours. […] The cells were then incubated during 10 min in a 0.5% triton X-100 permeabilization solution, and washed 3 times in PBS. Next, they were incubated in a blocking solution (PBS 5% BSA) for 15 min, then incubated with mouse anti-ß-tubulin antibody (Sigma) 1/200 overnight. Tubulin and biotinylated peptides were localized using respectively Alexa 568 nm anti-mouse antibody and streptavidin Alexa 488 nm (Molecular Probes) 1/200 for 1 hour, followed by washing in PBS. […] Sigma) for 5 min, washed twice with PBS, then cover slips were mounted with an antifading solution. Observations were performed with an Olympus confocal microscope (BX50) using Fluoview.3.1. Software or a Leica DMI6000 inverted microscope and analyzed with Metamorph 7.1.7.0. software. We counted cells containing the peptide and cells displaying a destroyed MT network. Experiments were repeated at least three times, and a minimum of 200 cells was scored during each experiment.

[2] = tested on: T98G human glioblastoma cells; assay: Disintegration of the microtubule network in T98G cells (anti-tubulin immunostaining, cell counting); format: cell-based; settings: 6 hours; for Disintegration of MT (% of cells): T98G cells, 10 µM biotinylated peptide, anti-tubulin immunostaining, minimum 200 cells per experiment, mean ± S.E.M., triplicated; for Effect on MT network of T98G / glioma cells (in words): 10 µM, immunocytochemistry
Protocol: as §1

| Structure (SMILES) | Peptide incorporation (% of cells) [1] | Disintegration of MT (% of cells) [2] | Cell penetration / internalization in T98G cells (in words) [1] | Effect on MT network of T98G / glioma cells (in words) [2] |
| --- | --- | --- | --- | --- |
| CC(C)C[C@H](NC(=O)[C@H](CO)NC(=O)[C@H](CO)NC(=O)[C@H](CO)NC(=O)[C@@H](NC(=O)[C@@H]1CCCN1C(=O)[C@H](C)NC(=O)[C@H](CO)NC(=O)[C@H](Cc1ccc(O)cc1)NC(=O)[C@H](CO)NC(=O)[C@H](CO)NC(=O)[C@H](Cc1ccc(O)cc1)NC(=O)CCCC[C@@H]1SC[C@@H]2NC(=O)N[C@@H]21)C(C)C)C(=O)N[C@@H](CO)C(=O)N[C@H](C(=O)N[C@@H](CCCNC(=N)N)C(=O)N[C@@H](CCCNC(=N)N)C(=O)N[C@@H](CO)C(=O)N[C@@H](Cc1ccc(O)cc1)C(=O)N[C@@H](C)C(=O)N[C@@H](CO)C(=O)N[C@@H](CO)C(=O)N[C@@H](CO)C(=O)NCC(=O)N[C@@H](CO)C(N)=O)C(C)C [Ser19Ala] (Biotin-YSSYSAPVSSSLSVRRSYASSSGS-NH2) | 5.2±0.7 % of cells | 14.5±2.7 % of cells |  |  |
| CC(C)C[C@H](NC(=O)[C@H](CO)NC(=O)[C@H](CC(C)C)NC(=O)[C@H](CO)NC(=O)[C@H](CO)NC(=O)[C@H](CO)NC(=O)[C@@H](NC(=O)[C@@H]1CCCN1C(=O)[C@H](C)NC(=O)[C@H](CO)NC(=O)[C@H](Cc1ccc(O)cc1)NC(=O)[C@H](CO)NC(=O)[C@H](CO)NC(=O)[C@H](Cc1ccc(O)cc1)NC(=O)CCCC[C@@H]1SC[C@@H]2NC(=O)N[C@@H]21)C(C)C)C(=O)N[C@@H](CCCNC(=N)N)C(=O)N[C@@H](CCCNC(=N)N)C(=O)N[C@@H](CO)C(=O)N[C@@H](Cc1ccc(O)cc1)C(=O)N[C@@H](CO)C(=O)N[C@@H](CO)C(=O)N[C@@H](CO)C(=O)N[C@@H](CO)C(=O)NCC(=O)N[C@@H](CO)C(N)=O [Val14Leu] (Biotin-YSSYSAPVSSSLSLRRSYSSSSGS-NH2) | 44.2±2.2 % of cells | 39.2±2.4 % of cells |  |  |
| CC(C)C[C@H](NC(=O)[C@H](CO)NC(=O)[C@H](CO)NC(=O)[C@H](CO)NC(=O)[C@@H](NC(=O)[C@@H]1CCCN1C(=O)[C@H](C)NC(=O)[C@H](CO)NC(=O)[C@H](Cc1ccc(O)cc1)NC(=O)[C@H](CO)NC(=O)[C@H](CO)NC(=O)[C@H](Cc1ccc(O)cc1)NC(=O)CCCC[C@@H]1SC[C@@H]2NC(=O)N[C@@H]21)C(C)C)C(=O)N[C@@H](CO)C(=O)N[C@H](C(=O)N[C@@H](CCCNC(=N)N)C(=O)N[C@@H](CCCNC(=N)N)C(=O)N[C@@H](CO)C(=O)N[C@@H](C)C(=O)N[C@@H](CO)C(=O)N[C@@H](CO)C(=O)N[C@@H](CO)C(=O)N[C@@H](CO)C(=O)NCC(=O)N[C@@H](CO)C(N)=O)C(C)C [Tyr18Ala] (Biotin-YSSYSAPVSSSLSVRRSASSSSGS-NH2) | 7.9±0.9 % of cells | 16.0±2.8 % of cells |  |  |
| CC(C)C[C@H](NC(=O)[C@H](CO)NC(=O)[C@H](CO)NC(=O)[C@H](CO)NC(=O)[C@@H](NC(=O)[C@@H]1CCCN1C(=O)[C@H](C)NC(=O)[C@H](CO)NC(=O)[C@H](Cc1ccc(O)cc1)NC(=O)[C@H](C)NC(=O)[C@H](CO)NC(=O)[C@H](Cc1ccc(O)cc1)NC(=O)CCCC[C@@H]1SC[C@@H]2NC(=O)N[C@@H]21)C(C)C)C(=O)N[C@@H](CO)C(=O)N[C@H](C(=O)N[C@@H](CCCNC(=N)N)C(=O)N[C@@H](CCCNC(=N)N)C(=O)N[C@@H](CO)C(=O)N[C@@H](Cc1ccc(O)cc1)C(=O)N[C@@H](CO)C(=O)N[C@@H](CO)C(=O)N[C@@H](CO)C(=O)N[C@@H](CO)C(=O)NCC(=O)N[C@@H](CO)C(N)=O)C(C)C [Ser3Ala] (Biotin-YSAYSAPVSSSLSVRRSYSSSSGS-NH2) | 0.8±1.2 % of cells | 19.1±0.9 % of cells |  |  |
| CC(C)C[C@H](NC(=O)[C@H](CO)NC(=O)[C@H](CO)NC(=O)[C@H](CO)NC(=O)[C@@H](NC(=O)[C@@H]1CCCN1C(=O)[C@H](C)NC(=O)[C@H](CO)NC(=O)[C@H](Cc1ccc(O)cc1)NC(=O)[C@H](CO)NC(=O)[C@H](CO)NC(=O)[C@H](Cc1ccc(O)cc1)NC(=O)CCCC[C@@H]1SC[C@@H]2NC(=O)N[C@@H]21)C(C)C)C(=O)N[C@@H](CO)C(=O)N[C@H](C(=O)N[C@@H](CCCNC(=N)N)C(=O)N[C@@H](CCCNC(=N)N)C(=O)N[C@@H](CC(=O)O)C(=O)N[C@@H](Cc1ccc(O)cc1)C(=O)N[C@@H](CC(=O)O)C(=O)N[C@@H](CO)C(=O)N[C@@H](CO)C(=O)N[C@@H](CO)C(=O)NCC(=O)N[C@@H](CO)C(N)=O)C(C)C [Ser17,19Asp] (Biotin-YSSYSAPVSSSLSVRRDYDSSSGS-NH2) | 29.0±12.7 % of cells | 18.6±6.8 % of cells | decreased internalization | not altered |
| CC(C)C[C@H](NC(=O)[C@H](CO)NC(=O)[C@H](CO)NC(=O)[C@H](CO)NC(=O)[C@@H](NC(=O)[C@@H]1CCCN1C(=O)[C@H](C)NC(=O)[C@H](CO)NC(=O)[C@H](Cc1ccc(O)cc1)NC(=O)[C@H](CO)NC(=O)[C@H](CO)NC(=O)[C@H](Cc1ccc(O)cc1)NC(=O)CCCC[C@@H]1SC[C@@H]2NC(=O)N[C@@H]21)C(C)C)C(=O)N[C@@H](CO)C(=O)N[C@H](C(=O)N[C@@H](CCCNC(=N)N)C(=O)N[C@@H](CCCNC(=N)N)C(=O)N[C@@H](C)C(=O)N[C@@H](Cc1ccc(O)cc1)C(=O)N[C@@H](CO)C(=O)N[C@@H](CO)C(=O)N[C@@H](CO)C(=O)N[C@@H](CO)C(=O)NCC(=O)N[C@@H](CO)C(N)=O)C(C)C [Ser17Ala] (Biotin-YSSYSAPVSSSLSVRRAYSSSSGS-NH2) | 4.6±1.8 % of cells | 18.1±4.4 % of cells |  |  |
| CC(C)C[C@H](NC(=O)[C@H](CO)NC(=O)[C@H](CO)NC(=O)[C@H](CO)NC(=O)[C@@H](NC(=O)[C@@H]1CCCN1C(=O)[C@H](C)NC(=O)[C@H](CO)NC(=O)[C@H](Cc1ccc(O)cc1)NC(=O)[C@H](CO)NC(=O)[C@H](CO)NC(=O)[C@H](Cc1ccc(O)cc1)NC(=O)CCCC[C@@H]1SC[C@@H]2NC(=O)N[C@@H]21)C(C)C)C(=O)N[C@@H](C)C(=O)N[C@H](C(=O)N[C@@H](CCCNC(=N)N)C(=O)N[C@@H](CCCNC(=N)N)C(=O)N[C@@H](CO)C(=O)N[C@@H](Cc1ccc(O)cc1)C(=O)N[C@@H](CO)C(=O)N[C@@H](CO)C(=O)N[C@@H](CO)C(=O)N[C@@H](CO)C(=O)NCC(=O)N[C@@H](CO)C(N)=O)C(C)C [Ser13Ala] (Biotin-YSSYSAPVSSSLAVRRSYSSSSGS-NH2) | 12.2±0.8 % of cells | 16.6±5.2 % of cells |  |  |
| CC(C)C[C@H](NC(=O)[C@H](CO)NC(=O)[C@H](CO)NC(=O)[C@H](CO)NC(=O)[C@@H](NC(=O)[C@@H]1CCCN1C(=O)[C@H](C)NC(=O)[C@H](CO)NC(=O)[C@H](Cc1ccc(O)cc1)NC(=O)[C@H](CO)NC(=O)[C@H](CO)NC(=O)[C@H](Cc1ccc(O)cc1)NC(=O)CCCC[C@@H]1SC[C@@H]2NC(=O)N[C@@H]21)C(C)C)C(=O)N[C@@H](CO)C(=O)N[C@@H](C)C(=O)N[C@@H](CCCNC(=N)N)C(=O)N[C@@H](CCCNC(=N)N)C(=O)N[C@@H](CO)C(=O)N[C@@H](Cc1ccc(O)cc1)C(=O)N[C@@H](CO)C(=O)N[C@@H](CO)C(=O)N[C@@H](CO)C(=O)N[C@@H](CO)C(=O)NCC(=O)N[C@@H](CO)C(N)=O [Val14Ala] (Biotin-YSSYSAPVSSSLSARRSYSSSSGS-NH2) | 0 % of cells | 13.8±3.9 % of cells | fails to enter in cells | does not affect the MT network |
| CC(C)C[C@H](NC(=O)[C@H](C)NC(=O)[C@H](CO)NC(=O)[C@H](CO)NC(=O)[C@@H](NC(=O)[C@@H]1CCCN1C(=O)[C@H](C)NC(=O)[C@H](CO)NC(=O)[C@H](Cc1ccc(O)cc1)NC(=O)[C@H](CO)NC(=O)[C@H](CO)NC(=O)[C@H](Cc1ccc(O)cc1)NC(=O)CCCC[C@@H]1SC[C@@H]2NC(=O)N[C@@H]21)C(C)C)C(=O)N[C@@H](CO)C(=O)N[C@H](C(=O)N[C@@H](CCCNC(=N)N)C(=O)N[C@@H](CCCNC(=N)N)C(=O)N[C@@H](CO)C(=O)N[C@@H](Cc1ccc(O)cc1)C(=O)N[C@@H](CO)C(=O)N[C@@H](CO)C(=O)N[C@@H](CO)C(=O)N[C@@H](CO)C(=O)NCC(=O)N[C@@H](CO)C(N)=O)C(C)C [Ser11Ala] (Biotin-YSSYSAPVSSALSVRRSYSSSSGS-NH2) | 2.5±2.5 % of cells | 15.9±6.5 % of cells |  |  |
